Results on two compounds are retold here after patent US20210113522A1, “COUMARIN DERIVATIVE AS ANTI-ASTHMATIC AGENT, PHARMACEUTICAL COMPOSITION THEREOF, ITS PREPARATION AND USE” (I-NOVA MEDICINSKA ISTRAZIVANJA D.O.O., priority 2017, published 2021).

For assay [1], the system named is croton oil-induced ear edema. In words: Croton oil-induced ear edema in mice. The format is in vivo, Balb/c mice. The following applies: dexamethasone 1 mg/kg, 1 2 mg/kg. The source says: The presents study aims to detect the inflammatory/anti-inflammatory potential effects of compound 1 in a model of acute skin inflammation induced by local application of phlogistic agent croton oil in Balb/c mice. The technique for croton oil-induced ear edema in mice, originally described by Tubaro et al., was followed, with modifications; see literature references 16 and 17: • 16) A. Tubaro, P. Dri, G. Delbello, C. Zilli, R. Della Loggia: The croton oil ear test revisited, Agents Actions 17 (1986) 347-349. • 17) G. Coruzzi, C. Pozzoli, M. Adami, D. Grandi, N. Guido, R. Smits, I. de Esch and R. Leurs: Strain-dependent effects of the histamine H4 receptor antagonist JNJ7777120 in a murine model of acute skin inflammation, Experimental Dermatology 21 (2011) 32-37.
Mice (total 40) were separated into 4 groups (n=10). Each group was treated under different regimen:
Cutaneous inflammation was induced in conscious mice by topical application of croton oil (5% in acetone).
Six hours after croton oil application, mice were euthanized by light ether anaesthesia, followed by cervical dislocation; both left (acetone) and right (croton oil in acetone) ears were removed, by cutting horizontally across the indentation at the base of the ear. For each mouse, the extent of the oedema was expressed as the difference in weight (Δ [mg]) between right (inflamed) and left (uninflamed) ear. The percentage increase in the oedema of the treated ear was calculated by the following formula: […]
The presents study aims to detect the inflammatory/anti-inflammatory potential effects of compound 1 in a model of acute skin inflammation induced by local application of phlogistic agent croton oil in Balb/c mice. The technique for croton oil-induced ear edema in mice, originally described by Tubaro et al., was followed, with modifications; see literature references 16 and 17.
In preliminary experiments, the effect of subcutaneous (s.c.) administration of saline, 100% DMSO or 20% 2-hydroxypropyl-β-cyclodextrin was investigated to check the vehicle effects on ear inflammation.
The statistical significance between the groups was assessed by one-way analysis of variance (ANOVA) followed by a post hoc Tukey test. The accepted level of significance for the test was P<0.05. All tests were carried out using GraphPad Software (San Diego, Calif., USA).

Assay [2] concerns CCL11 (eotaxin). The experiment in a line: OVA model: CCL11 (eotaxin) immunohistochemistry of lung sections. The format is in vivo, Balb/c mice. The following applies: OVA-challenged mice; 1 2 mg/kg, beclomethasone 1 mg/kg. The protocol:
• (1) Wash Buffer: T-PBS (0.1M, pH 7.4, 0.05% Tween 20); • (2) Blocking/Incubation Buffer: 1% bovine serum albumin, 0.1% Cold Fish Skin Gelatin, 0.5% Triton® X-100, 0.1 M PBS (pH 7.4); • (3) Peroxidase Blocking Solution (3% H2O2 in water); • (4) EDTA Antigen Retrieval Buffer (1 mM EDTA, 0.05% Tween 20, pH 8.0); • (5) Primary antibodies: • Rabbit anti-mouse IL-5 (Cat. #ABIN446956; Antibodies-Online GmbH, Schloss-Rahe-Str. 1552072 Aachen, Germany); • Rat anti-mouse CCL11 (Cat. #MAB420; R&D Systems, Inc., 614 McKinley Place Nebr., Minneapolis, Minn. 55413); • (6) Secondary antibodies: • Goat anti-rabbit IgG (H+L)-HRP (cat. #31466; Thermo Fisher Scientific, 168 Third Avenue Waltham, Mass. USA 02451); • Goat anti-rat IgG (H+L)—HRP (cat. #62-9520; Thermo Fisher Scientific, 168 Third Avenue Waltham, Mass. USA 02451); • (7) Pierce DAB Substrate Kit (DAB (10×), 25 mL; Stable Peroxide Buffer, 250 mL) (Catalog #34002; Thermo Fisher Scientific, 168 Third Avenue Waltham, Mass. USA 02451); • (8) Hematoxylin Counterstain (Cat #GHS216; Sigma-Aldrich Chemie GmbH, Eschenstrasse 5, 82024 Taufkirchen, Germany); • (9) Vitro-Clud 500 Mounting Medium (Catalog #A20500; Deltalab; Plz. Verneda 1, Pol Ind La Llana 08191 Rubí Barcelona Spain). […]

SMILES strings stand for the structures.

On to `O=c1oc2cc(O)cc(O)c2c(O)c1-c1coc2c1c(=O)oc1cc(O)cc(O)c12` [Compound 1, 7,9-dihydroxy-3-(4,5,7-trihydroxy-2-oxo-2H-chromene-3-yl)-4H-furo[3,2-c]chromen-4-one], for which, in assay [1] (6 h after croton oil), the “Ear edema Δm (right minus left ear)” value came out at 0.0321 g and the “Percentage of increasing the ear edema” value stood at 92.98%. In assay [1] (Balb/c mice, 6 h), the “Maximal inhibition of croton oil-induced ear oedema” value was around 40%. For the same compound, the Left ear m in assay [1] (left ear: 80% 2HPβCD + 20% DMSO (uninflamed), 6 h) worked out at 0.0344 g. The Right ear m in assay [1] (right ear: substance + croton oil after 30 min, 6 h) came to 0.0665 g. Moreover, the “CCL11 (eotaxin) levels in lung sections” value in assay [2] is “reduced to background”.

As for `C[C@H]1C[C@H]2[C@@H]3CCC4=CC(=O)C=C[C@]4(C)[C@@]3(Cl)[C@@H](O)C[C@]2(C)[C@@]1(O)C(=O)CO` [beclomethasone, reference compound], in assay [2], the “CCL11 (eotaxin) levels in lung sections” value is reported as “reduced to background”.
